Data reported in US20090018019A1, “INCREASING PATHOGEN DEFENCE IN PLANTS” (priority 2005, published 2009).

Assays:
Experiment in all cases: DNA chip expression analysis of barley leaves after soil treatment
Type in all cases: in vivo
Details in all cases: 10 mg per plant to soil
[1] = system: Contig2209_at PATHOGENESIS RELATED PROTEIN (HV-1A)
Experimental: (§1) Barley seeds (of the Baroness variety) were sown in pots containing soil about 2 cm deep (1250 g of sandy loam/per pot; the soil moisture content was adjusted to 70% of the maximum water-holding capacity) and cultivated in a climatized chamber under specified light, moisture and temperature conditions (15 h white light, 70% atmospheric humidity, 23-19° C. day/night).
(§2) 14 days after the emergence of the barley plants 10 mg of imidacloprid per plant, dissolved in 100 ml water, were applied by means of a pipette to the soil around the base of the shoot. The same volume of water without any active compound was applied to the control pots. After the soil treatment the plants were no longer watered. At various times after application (0.25; 1; 6; 8; 11; 13; 15; 16 and 17 days) the leaves were harvested, quick-frozen in liquid nitrogen and stored at −80° C. until further treatment.
(§3) The labelled RNA probes for the DNA chip hybridization were produced according to the protocols (Expression Analysis, Technical Manual) of the Affymetrix company (Affymetrix Inc., 3380 Central Expressway, Santa Clara, Calif., USA). Whole RNA was first of all isolated from in each case 500 mg of the harvested leaves. 10 μg portions of whole RNA were used for the first and second strand cDNA synthesis. The cDNA was amplified with T7 polymerase and simultaneously labelled with biotin-UTP. 20 μg portions of this biotinylated cDNA were used for the hybridization of the barley genome array (Barleyl Gene Chip, Item no: 511012) from Affymetrix. This DNA microarray contains DNA sequences of 22840 genes composed of a total of 400000 EST (Expressed Sequence Tag) sequences. Then the DNA microarrays were washed in the Affymetrix Fluidics Station, stained with streptavidin/phycoerythrin (Molecular Probes, P/N S-866) and scanned with the Affymetrix Gene Chip Scanner 3000. The fluorescence data obtained were analyzed with the Microarray Suite 5 software from Affymetrix and the Expressionist Pro software from the GeneData company. After a quality check, all of the DNA chip analyses were stored in a database. Since the Affymetrix Gene Chip System is based on measuring the absolute expression values of the genes contained in the chip, the expression values of the biological replicates of treated and non-treated plants were averaged after normalization (median calculation). With the aid of the statistical ANOVA method, those genes were identified whose expression was increased in the plants treated with imidacloprid but remained relatively constant in the untreated controls. The assembly of gene groups from specific metabolic pathways, signal transduction chains or functions was carried out by a keyword search through the gene annotations supplied by Affymetrix and by linking the genes to their corresponding Gene Ontology Annotations (Gene Ontology Consortium).

[2] = system: Contig2211_at PATHOGENESIS-RELATED PROTEIN PRECURSOR
Experimental: as §1, §2, §3

[3] = system: Contig4405_x_at PATHOGENESIS-RELATED PROTEIN PR-10A
Experimental: as §1, §2, §3

[4] = system: HV_CEb0020C01r2_at INTEGUMENTARY MUCIN B.1
Experimental: as §1, §2, §3

O=[N+]([O-])/N=C1\NCCN1Cc1ccc(Cl)nc1 [imidacloprid]
Induction factor = Expression (treated)/Expression (untreated) ([1]; 0.25 d): 0.8 | Median of the raw expression data, treated ([1]; 0.25 days): 187.60 | Induction factor = Expression (treated)/Expression (untreated) ([1]; 1 d): 0.6 | Median of the raw expression data, treated ([1]; 1 day): 153.35 | Induction factor = Expression (treated)/Expression (untreated) ([1]; 6 d): 9.8 | Median of the raw expression data, treated ([1]; 6 days): 4773.49 | Induction factor = Expression (treated)/Expression (untreated) ([1]; 8 d): 11.5 | Median of the raw expression data, treated ([1]; 8 days): 8173.99 | Induction factor = Expression (treated)/Expression (untreated) ([1]; 11 d): 12.1 | Median of the raw expression data, treated ([1]; 11 days): 8587.82 | Induction factor = Expression (treated)/Expression (untreated) ([1]; 13 d): 6.0 | Median of the raw expression data, treated ([1]; 13 days): 1723.94 | Induction factor = Expression (treated)/Expression (untreated) ([1]; 15 d): 2.7 | Median of the raw expression data, treated ([1]; 15 days): 1689.29 | Induction factor = Expression (treated)/Expression (untreated) ([1]; 16 d): 2.5 | Median of the raw expression data, treated ([1]; 16 days): 2069.04 | Induction factor = Expression (treated)/Expression (untreated) ([1]; 17 d): 0.6 | Median of the raw expression data, treated ([1]; 17 days): 888.58 | Induction factor = Expression (treated)/Expression (untreated) ([2]; 0.25 d): 1.0 | Median of the raw expression data, treated ([2]; 0.25 days): 223.31 | Induction factor = Expression (treated)/Expression (untreated) ([2]; 1 d): 1.0 | Median of the raw expression data, treated ([2]; 1 day): 206.49 | Induction factor = Expression (treated)/Expression (untreated) ([2]; 6 d): 3.1 | Median of the raw expression data, treated ([2]; 6 days): 824.50 | Induction factor = Expression (treated)/Expression (untreated) ([2]; 8 d): 3.7 | Median of the raw expression data, treated ([2]; 8 days): 928.65 | Induction factor = Expression (treated)/Expression (untreated) ([2]; 11 d): 3.0 | Median of the raw expression data, treated ([2]; 11 days): 868.02 | Induction factor = Expression (treated)/Expression (untreated) ([2]; 13 d): 1.8 | Median of the raw expression data, treated ([2]; 13 days): 296.99 | Induction factor = Expression (treated)/Expression (untreated) ([2]; 15 d): 1.1 | Median of the raw expression data, treated ([2]; 15 days): 252.25 | Induction factor = Expression (treated)/Expression (untreated) ([2]; 16 d): 1.5 | Median of the raw expression data, treated ([2]; 16 days): 340.64 | Induction factor = Expression (treated)/Expression (untreated) ([2]; 17 d): 0.8 | Median of the raw expression data, treated ([2]; 17 days): 219.24 | Induction factor = Expression (treated)/Expression (untreated) ([3]; 0.25 d): 1.1 | Median of the raw expression data, treated ([3]; 0.25 days): 60.34 | Induction factor = Expression (treated)/Expression (untreated) ([3]; 1 d): 0.9 | Median of the raw expression data, treated ([3]; 1 day): 55.96 | Induction factor = Expression (treated)/Expression (untreated) ([3]; 6 d): 2.1 | Median of the raw expression data, treated ([3]; 6 days): 146.82 | Induction factor = Expression (treated)/Expression (untreated) ([3]; 8 d): 2.8 | Median of the raw expression data, treated ([3]; 8 days): 181.30 | Induction factor = Expression (treated)/Expression (untreated) ([3]; 11 d): 2.2 | Median of the raw expression data, treated ([3]; 11 days): 125.79 | Induction factor = Expression (treated)/Expression (untreated) ([3]; 13 d): 1.3 | Median of the raw expression data, treated ([3]; 13 days): 55.42 | Induction factor = Expression (treated)/Expression (untreated) ([3]; 15 d): 1.1 | Median of the raw expression data, treated ([3]; 15 days): 57.66 | Induction factor = Expression (treated)/Expression (untreated) ([3]; 16 d): 1.4 | Median of the raw expression data, treated ([3]; 16 days): 88.69 | Induction factor = Expression (treated)/Expression (untreated) ([3]; 17 d): 1.5 | Median of the raw expression data, treated ([3]; 17 days): 87.06 | Induction factor = Expression (treated)/Expression (untreated) ([4]; 0.25 d): 1.4 | Median of the raw expression data, treated ([4]; 0.25 days): 96.81 | Induction factor = Expression (treated)/Expression (untreated) ([4]; 1 d): 0.9 | Median of the raw expression data, treated ([4]; 1 day): 87.44 | Induction factor = Expression (treated)/Expression (untreated) ([4]; 6 d): 4.3 | Median of the raw expression data, treated ([4]; 6 days): 418.12 | Induction factor = Expression (treated)/Expression (untreated) ([4]; 8 d): 2.8 | Median of the raw expression data, treated ([4]; 8 days): 428.35 | Induction factor = Expression (treated)/Expression (untreated) ([4]; 11 d): 2.2 | Median of the raw expression data, treated ([4]; 11 days): 389.74 | Induction factor = Expression (treated)/Expression (untreated) ([4]; 13 d): 1.7 | Median of the raw expression data, treated ([4]; 13 days): 180.00 | Induction factor = Expression (treated)/Expression (untreated) ([4]; 15 d): 1.0 | Median of the raw expression data, treated ([4]; 15 days): 170.35 | Induction factor = Expression (treated)/Expression (untreated) ([4]; 16 d): 1.2 | Median of the raw expression data, treated ([4]; 16 days): 161.77 | Induction factor = Expression (treated)/Expression (untreated) ([4]; 17 d): 0.6 | Median of the raw expression data, treated ([4]; 17 days): 106.72
